According to patent US20250092030A1, “ENHANCERS OF PARTICULATE GUANYLYL CYCLASE RECEPTOR A” (Mayo Foundation for Medical Education and Research, priority 2023, published 2025):
Where “and” joins values, the source holds several entries; their conditions need not be identical. Equal values may be shown once. Read-outs that look alike come from different tables or passages of the source.

Target: T1, particulate guanylyl cyclase receptor A (pGC-A) (Homo sapiens, UniProt P16066)
T1 construct: expressed in transfected cells; host or cells: HEK293
T1 sequence (P16066 33-1061): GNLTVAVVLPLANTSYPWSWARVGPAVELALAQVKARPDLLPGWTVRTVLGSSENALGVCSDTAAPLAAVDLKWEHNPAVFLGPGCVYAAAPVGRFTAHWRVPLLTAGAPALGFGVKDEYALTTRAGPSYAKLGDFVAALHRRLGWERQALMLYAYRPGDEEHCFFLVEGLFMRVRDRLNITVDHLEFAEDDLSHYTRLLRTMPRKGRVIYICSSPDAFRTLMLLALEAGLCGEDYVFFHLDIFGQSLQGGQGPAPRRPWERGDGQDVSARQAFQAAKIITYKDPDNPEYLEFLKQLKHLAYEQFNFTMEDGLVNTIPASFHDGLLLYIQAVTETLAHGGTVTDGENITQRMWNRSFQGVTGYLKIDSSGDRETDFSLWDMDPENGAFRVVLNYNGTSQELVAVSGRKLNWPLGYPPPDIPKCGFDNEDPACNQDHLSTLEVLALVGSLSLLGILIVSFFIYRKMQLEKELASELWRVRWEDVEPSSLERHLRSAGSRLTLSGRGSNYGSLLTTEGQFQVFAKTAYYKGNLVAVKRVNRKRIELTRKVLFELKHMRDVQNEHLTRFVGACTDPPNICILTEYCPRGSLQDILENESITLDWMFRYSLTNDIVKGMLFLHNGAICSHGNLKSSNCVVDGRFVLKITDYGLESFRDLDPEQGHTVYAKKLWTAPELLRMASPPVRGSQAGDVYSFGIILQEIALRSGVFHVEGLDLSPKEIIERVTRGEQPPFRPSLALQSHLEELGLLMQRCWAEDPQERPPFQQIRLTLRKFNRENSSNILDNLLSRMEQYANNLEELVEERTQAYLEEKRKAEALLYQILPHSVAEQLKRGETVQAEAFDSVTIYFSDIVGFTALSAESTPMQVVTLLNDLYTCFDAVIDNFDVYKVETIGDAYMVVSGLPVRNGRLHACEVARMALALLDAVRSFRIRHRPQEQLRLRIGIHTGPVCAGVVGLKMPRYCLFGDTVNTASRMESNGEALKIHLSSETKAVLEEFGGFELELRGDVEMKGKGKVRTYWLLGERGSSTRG
T1 sequence (P01160 124-151 partner limits assumed): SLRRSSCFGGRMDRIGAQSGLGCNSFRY
Assay: cGMP production by HTRF in HEK293 cells overexpressing pGC-A, with ANP
Type: cell-based
Conditions: for Emax / Max efficacy: cGMP normalized to maximal amount produced by an EC80 concentration of ANP; for Emax: read-out: Max efficacy; for EC50: test compound plus EC20 concentration of ANP, cGMP by HTRF
Description: Assay: Generally, the assay monitors the production of cGMP, the second messenger generated by pGC-A, by Time-Resolved Florescence (HTRF) in HEK293 cells overexpressing the pGC-A. pGC-A suspension cells were stimulated in the presence of the test compound and an EC20 concentration of ANP. The quantity of cGMP was detected by competitive immunoassay using Eu^3+ cryptate-labeled anti-cGMP and d2-labeled cGMP and normalized to maximal amount produced by an EC80 concentration of ANP. Compound EC50 values were determined in the primary assay, in the presence or absence of ANP, to determine mode of action as positive modulators and tested for selectivity in the same assay platform but in HEK cells overexpressing the particulate guanylyl cyclase B receptor (pGC-B), of which CNP is the endogenous ligand.
Assay details: 20 nL of 10 μM test compound in DMSO was added to columns 5-48 of 1536 well white high base screening plates (Corning, New York, NY) cells using 550 ECHO acoustic dispenser (Labcyte, San Jose, CA). Alpha-atrial natriuretic peptide (ANP) (Phoenix Pharmaceutics) was prepared as stock aliquots at 5 μM in PBS with 0.1% BSA. An approximate […] concentration of ANP ([…]) in assay buffer (HBSS containing 5 mM HEPES and 0.05% BSA) was added to columns 3-48 at a volume of 1 μL. Assay buffer only was added to column 1 and assay buffer containing a saturating concentration of ANP (5 nM) was added to column 2. HEK293 cells overexpressing GC-A were resuspended in assay media (OptimMem media containing 2% Heat-inactivated Fetal bovine serum and L-glutamine) at a density of 6×10^5 cells/mL and 2 μL were plated in screening plates (1200 cells/well) in suspension using a Bioraptr 2. Plates were spun at 1000 rpm for 1 min and incubated for 30 min at room temperature. 1.5 μL d2-labeled cGMP followed by 1.5 μL Eu^3+ cryptate-labeled anti-cGMP cGMP detection kit (CiBio; #62GM2PEC) prepared according to manufacturer's protocol were added to all wells using a Bioraptr 2 and TR-FRET signal was detected on an EnVision detector (PerkinElmer). Wells treated with 0.3% DMSO only serve as blank controls (column 1); wells treated with 0.3% DMSO and 5 nM ANP (columns 2) serve as positive controls and wells treated with 0.3% DMSO and […] ANP (columns 3-4) serve as negative controls.

[1] = HEK293, HEK293 cells overexpressing pGC-A
[2] = HEK293 cells overexpressing pGC-A

| Compound | Emax [1] [%] | EC50 [2] | Max efficacy [2] | Emax [2] [%] |
| --- | --- | --- | --- | --- |
| O=C(Nc1nc2c(F)cc(F)cc2s1)C1CCCN(CCN2CCCC2=O)C1 (stereo not drawn) [compound 245] | 102 | 4500 nM and 1800 nM | – | – |
| CN(C)CCN[C@@H]1CCCCC1C(=O)Nc1nc2c(F)cc(F)cc2s1 (stereo partly drawn) [compound 211] | 101 | – | – | – |
| O=C(Nc1nc2c(F)cc(F)cc2s1)C1CCCN(CCN2CCCC2)C1 (stereo not drawn) [compound 239] | 87 | 220 nM and 300 nM | 94% and 77% | – |
| COc1cc(F)c2nc(NC(=O)C3CCCN(CCN(C)C)C3)sc2c1 (stereo not drawn) [compound 021] | – | 6700 nM and 1700 nM | 77% | – |
| O=C(Nc1nc2c(F)cc(F)cc2s1)C1CCCN(c2ccncc2F)C1 (stereo not drawn) [compound 112] | 97 | – | – | – |
| O=C(Nc1nc2c(F)cc(F)cc2s1)c1cccc(Cl)c1 [compound 201] | – | > 10000 nM | – | – |
| CCN(CC)CCN1CCCC(C(=O)Nc2nc3c(F)cc(F)cc3s2)C1 (stereo not drawn) [compound 238] | 86 | 210 nM and 320 nM | 92% | – |
| N[C@H]1CCCC(C(=O)Nc2nc3c(F)cc(F)cc3s2)C1 (stereo partly drawn) [210C] | 92 | – | – | – |
| O=C(Nc1nc2c(F)cc(F)cc2c(=O)[nH]1)C1CCCNC1 (stereo not drawn) [compound 183] | – | > 5000 nM | – | – |
| O=C(Nc1nc2c(F)cc(F)cc2s1)C1CCCN(c2ccccn2)C1 (stereo not drawn) [compound 079] | – | > 5000 nM | – | – |
| Cc1ccc(-c2csc(NC(=O)C3CCCN(CCN(C)C)C3)n2)cc1 (stereo not drawn) [compound 153] | – | > 5000 nM | – | – |
| O=C(Nc1nc2c(F)cc(F)cc2s1)C1CCCN(C(=O)N2CCCC2)C1 (stereo not drawn) [compound 275] | – | > 5000 nM | – | – |
| CN(C)CCN1CCCC(C(=O)Nc2nc(-c3ccccc3)cs2)C1 (stereo not drawn) [compound 144] | – | > 5000 nM | – | – |
| COc1ccc2sc(NC(=O)C3CCCN(CCN(C)C)C3)nc2c1 (stereo not drawn) [compound 013] | – | > 10000 nM | – | – |
| O=C(Nc1nc2c(F)cc(F)cc2s1)C1CCCN(CCN2CCCCC2)C1 (stereo not drawn) [compound 243] | 91 | 470 nM and 200 nM | 77% | – |
| CN(C)CCN1CCCC(C(=O)Nc2ncc(-c3ccccc3)s2)C1 (stereo not drawn) [compound 169] | – | > 5000 nM | – | – |
| Cc1cccc(-c2csc(NC(=O)C3CCCN(CCN(C)C)C3)n2)c1 (stereo not drawn) [compound 152] | – | > 5000 nM | – | – |
| CN(C)CCN1CCCC(C(=O)Nc2nc3c(Cl)cc(Cl)cc3s2)C1 (stereo not drawn) [compound 251] | – | > 5000 nM | – | – |
| Cc1cccc2sc(NC(=O)C3CCCN(CCN(C)C)C3)nc12 (stereo not drawn) [compound 005] | – | > 10000 nM | – | – |
| CN(C)CCN1CCCC(C(=O)Nc2nc3c(Br)cccc3s2)C1 (stereo not drawn) [compound 226] | – | 160 nM and 900 nM | 62% and 87% | – |
| O=C(Nc1nc2c(F)cc(F)cc2s1)C1CCCN(c2ccncc2Br)C1 (stereo not drawn) [compound 113] | – | > 5000 nM | – | – |
| O=C(Nc1nc2c(F)cc(F)cc2s1)C1CCC2CCC1N2 (stereo not drawn) [compound 049] | – | 300 nM | – | 98 |

Further lines, with some results ahead:

| Emax [1] [%] | EC50 [2] | Max efficacy [2] | Compound | Emax [2] [%] |
| --- | --- | --- | --- | --- |
| 93 | 1000 nM | – | COC(=O)CN1CCC(N2CCCC(C(=O)Nc3nc4c(F)cc(F)cc4s3)C2)C1 (stereo not drawn) [compound 094] | – |
| – | > 5000 nM | – | O=C(Nc1nc2c(F)cc(F)cc2o1)C1CCCNC1 (stereo not drawn) [compound 248] | – |
| 85 | 110 nM | – | CCN1CC(N2CCCC(C(=O)Nc3nc4c(Cl)cc(F)cc4s3)C2)C1 (stereo not drawn) [compound 135] | – |
| 75 | 1700 nM | – | COC1CNCC(C(=O)Nc2nc3c(F)cc(F)cc3s2)C1 (stereo not drawn) [compound 265] | – |
| 101 | 1530 nM | – | CN(C)CCCN1CCCCC1C(=O)Nc1nc2c(F)cc(F)cc2s1 (stereo not drawn) [compound 041] | – |
| 88 | 700 nM | – | O=C(Nc1nc2c(F)cc(F)cc2s1)C1CCCN(CCn2cccn2)C1 (stereo not drawn) [compound 067] | – |
| 72 | 1300 nM | – | O=C(Nc1nc2c(F)cc(F)cc2s1)C1CCCN(C2CCNC2)C1 (stereo not drawn) [compound 091] | – |
| 84 | 250 nM | – | CN1CCC(N2CCCC(C(=O)Nc3nc4c(Br)cccc4s3)C2)C1 (stereo not drawn) [compound 100] | – |
| – | > 5000 nM | – | CN1CCC(N2CCCCC2C(=O)Nc2nc3c(F)cc(F)cc3s2)C1 (stereo not drawn) [compound 038] | – |
| 86 | 600 nM | – | CN(C)C(=O)N1CCCC(C(=O)Nc2nc3c(F)cc(F)cc3s2)C1 (stereo not drawn) [compound 255] | – |
| – | 30 to 200 nM | 89-98% | CN1CCC(N2CCCC(C(=O)Nc3nc4c(F)cc(F)cc4s3)C2)C1 (stereo not drawn) [compound 069] | – |
| 46 | 300 nM | – | O=C(Nc1nc2c(Cl)cc(F)cc2s1)C1CCCN(C2CNC2)C1 (stereo not drawn) [compound 136] | – |
| 56 | 100 nM | – | O=C(Nc1nc2c(Cl)cc(F)cc2s1)C1CCCN(c2ccnnc2)C1 (stereo not drawn) [compound 115] | – |
| 84 | 500 nM | – | O=C(Nc1nc2c(Br)cccc2s1)C1CCCN(C2CCNC2)C1 (stereo not drawn) [compound 101] | – |
| 85 | 4300 nM | – | CN(C)CCN1CCCC(C(=O)Nc2nc3cccc(F)c3s2)C1 (stereo not drawn) [compound 032] | – |
| 80 | 80 nM | – | CCC(C)N1CC(N2CCCC(C(=O)Nc3nc4c(Cl)cc(F)cc4s3)C2)C1 (stereo not drawn) [compound 137] | – |
| – | > 5000 nM | – | O=C(O)CNCCN1CCCC(C(=O)Nc2nc3c(F)cc(F)cc3s2)C1 (stereo not drawn) [compound 260] | – |
| – | > 5000 nM | – | CN(C)CCN1CCCC(C(=O)Nc2nc(-c3cccc(Cl)c3)cs2)C1 (stereo not drawn) [compound 149] | – |
| – | > 5000 nM | – | CCNC(=O)N1CCCC(C(=O)Nc2nc3c(F)cc(F)cc3s2)C1 (stereo not drawn) [compound 277] | – |
| – | > 5000 nM | – | CN(C)CCN1CCCC(C(=O)Nc2nc3c(F)ccc(F)c3s2)C1 (stereo not drawn) [compound 234] | – |
| 72 | 50 nM | – | CN(C)CCN1CCCC(C(=O)Nc2nc3c(Cl)cc(F)cc3s2)C1 (stereo not drawn) [compound 253] | – |
| 93 | 200 nM | – | CN1CCC(N2CCCC(C(=O)Nc3nc4c(F)cc(F)cc4s3)C2)CC1 (stereo not drawn) [compound 071] | – |
| 89 | 700 nM | – | CN1CCC(N2CCCC(C(=O)Nc3nc4c(F)cc(F)cc4s3)C2)C1=O (stereo not drawn) [compound 097] | – |
| 105 | 5800 nM | – | CN(C)CCN1CCCC(C(=O)Nc2nc3c(F)cccc3s2)C1 (stereo not drawn) [compound 224] | – |
| 94 | 120 nM | – | CC1C(N2CCCC(C(=O)Nc3nc4c(Cl)cc(F)cc4s3)C2)CN1C (stereo not drawn) [compound 130] | – |
| 85 | 700 nM | – | NCCN1CCCC(C(=O)Nc2nc3c(F)cc(F)cc3s2)C1 (stereo not drawn) [compound 236] | – |
| 101 | 3500 nM | – | O=C(Nc1nc2c(F)cc(F)cc2s1)C1CCCN(c2ccnc(F)c2)C1 (stereo not drawn) [compound 106] | – |
| 81 | 130 nM | – | CC1NCC1N1CCCC(C(=O)Nc2nc3c(Cl)cc(F)cc3s2)C1 (stereo not drawn) [compound 131] | – |
| 58 | 1010 nM | – | O=C1CCC(C(=O)Nc2nc3c(F)cc(F)cc3s2)CN1 (stereo not drawn) [compound 222] | – |
